Assay results taken from US7875587B2, “Peptide analogues of GIP for treatment of diabetes, insulin resistance and obesity” (UUTECH Limited, priority 2004, dated 2011).

Assays:
[1] = tested on: BRIN-BD11 cells; experiment: Insulin release from clonal pancreatic BRIN-BD11 cells (Example 6); type: cell-based; settings: 5.6 mmol/l glucose, 20 minutes incubation
Experimental: Cells and cell culture. Chinese hamster lung (CHL) fibroblasts stably transfected with the human GIP receptor (Gremlich, S. et al., 1995, Diabetes 44: 1202-1208) were cultured in DMEM tissue culture medium containing 10% (v/v) FBS, 1% (v/v) antibiotics (100 U/ml penicillin, 0.1 mg/ml streptomycin). Clonal pancreatic BRIN-BD11 cells (McClenaghan, N. H. et al., 1996, Diabetes 45: 1132-1140) were cultured using RPMI-1640 culture medium containing 10% (v/v) FBS, 1% (v/v) antibiotics (100 U/ml penicillin, 0.1 mg/ml streptomycin) and 11.1 mmol/l glucose. Cells were maintained at 37° C. in an atmosphere of 5% CO2 and 95% air using an LEEC incubator (Laboratory Technical Engineering, Nottingham, UK).
Insulin-release studies were carried out using clonal pancreatic BRIN-BD11 cells as described previously (O'Harte, F. P. M. et al., 2002, Diabetologia 45: 1281-1291). Briefly, BRIN-BD11 cells were seeded into 24-well plates at a density of 10^5 cells per well, and allowed to attach overnight at 37° C. Acute tests for insulin release were preceded by 40 minutes pre-incubation at 37° C. in 1.0 ml Krebs Ringer bicarbonate buffer supplemented with 1.1 mmol/l glucose. Test incubations were performed in the presence of 5.6 mmol/l glucose with a range of concentrations (10^−13 to 10^−6 mol/l) of GIP and GIP analogues. After 20 minutes incubation, the buffer was removed from each well and aliquots (200 μl) used for measurement of insulin.

[2] = tested on: ob/ob mice; experiment: Once daily i.p. injection for 14 days in ob/ob mice; type: in vivo, mouse; settings: for body weight / food intake / non-fasting plasma insulin: 14 days; for plasma insulin response to glucose (AUC) / glucose tolerance: after 14 daily injections; for glucose tolerance: i.p. glucose 18 mmoles/kg; for insulin sensitivity: after 14 days, insulin 50 U/kg i.p.
Experimental: (§1) Animals. Obese diabetic (ob/ob) mice derived from the colony maintained at Aston University, UK were used at 12-17 weeks of age. The genetic background and characteristics of the colony used have been outlined in detail elsewhere (Bailey, C. J. et al., 1982, Int. J. Obesity 6:11-21; Gault, V. A. et al., 2003, J. Endocrinol. 176: 133-141). Animals were housed in an air-conditioned room at 22±2° C. with a 12 hours light: 12 hours dark cycle. Drinking water and standard rodent maintenance diet (Trouw Nutrition, Cheshire, UK) were freely available. All test solutions were administered by i.p. injection in a final volume of 5 ml/kg bw. Blood was collected from the cut tip of the tail vein of conscious mice into chilled fluoride/heparin microcentrifuge tubes immediately prior to injection and at the times indicated in the Figures. Plasma was separated using a Beckman microcentrifuge (Beckman Instruments, UK) at 13,000 g for 30 second and stored at −20° C. prior to glucose and insulin determinations. All animal experiments were carried out in accordance with the UK Animals (Scientific Procedures) Act 1986.
(§2) Metabolic and dose-response effects of GIP and N-AcGIP(LysPAL) analogues (at 6.25-25 nmoles/kg bw) following glucose administration (18 mmoles/kg bw) were examined in mice fasted for 18 hours. […] Food intake and body weight were recorded daily. Plasma glucose and insulin concentrations were monitored at 2-6 day intervals. At 14 days, groups of animals were used to evaluate intraperitoneal glucose tolerance (18 mmoles/kg) and insulin sensitivity (50 U/kg). In a separate series, two experimental protocols were employed to examine the possibility of GIP receptor desensitization after 14 days treatment. […] At the end of the 14-day treatment period, pancreatic tissues were excised for measurement of insulin following extraction with 5 ml/g ice-cold acid ethanol (75% ethanol, […], 1.5% HCl). Whole blood was taken for determination of glycated hemoglobin.
(§3) Biochemical analyses. Plasma glucose was assayed by an automated glucose oxidase procedure (Stevens, J. F., 1971, Clin. Chem. Acta 32:199-201) using a Beckman Glucose Analyser II (Beckman, Galway, Ireland). Plasma insulin was determined by dextran-charcoal RIA as described previously (Flatt, P. R. et al., 1981, Diabetologia 20: 573-577). Glycated hemoglobin was determined using cation-exchange columns (Sigma, Poole, Dorset, UK) with measurement of absorbance (415 nm) in wash and eluting buffers using a VersaMax microplate spectrophotometer (Molecular Devices, Wokingham, Berkshire, UK).
(§4) Statistics. Results are expressed as mean±SEM. Data were compared using the unpaired Student's t-test. Where appropriate, data were compared using repeated measures ANOVA or one-way ANOVA, followed by the Student-Newman-Keuls post hoc test. Incremental areas under plasma glucose and insulin curves (AUC) were calculated using a computer-generated program employing the trapezoidal rule (Burington, R. S., 1973, Handbook of Mathematical Tables and Formulae, McGraw-Hill, New York) with baseline subtraction.

[3] = molecular target: T1, purified porcine dipeptidylpeptidase IV (Sus scrofa, UniProt P22411); experiment: DPP IV degradation studies of fatty acid derivatised GIP analogues; type: in vitro ADME
T1 construct: purchased Sigma (Poole, Dorset, UK)
T1 sequence (P22411 whole entry): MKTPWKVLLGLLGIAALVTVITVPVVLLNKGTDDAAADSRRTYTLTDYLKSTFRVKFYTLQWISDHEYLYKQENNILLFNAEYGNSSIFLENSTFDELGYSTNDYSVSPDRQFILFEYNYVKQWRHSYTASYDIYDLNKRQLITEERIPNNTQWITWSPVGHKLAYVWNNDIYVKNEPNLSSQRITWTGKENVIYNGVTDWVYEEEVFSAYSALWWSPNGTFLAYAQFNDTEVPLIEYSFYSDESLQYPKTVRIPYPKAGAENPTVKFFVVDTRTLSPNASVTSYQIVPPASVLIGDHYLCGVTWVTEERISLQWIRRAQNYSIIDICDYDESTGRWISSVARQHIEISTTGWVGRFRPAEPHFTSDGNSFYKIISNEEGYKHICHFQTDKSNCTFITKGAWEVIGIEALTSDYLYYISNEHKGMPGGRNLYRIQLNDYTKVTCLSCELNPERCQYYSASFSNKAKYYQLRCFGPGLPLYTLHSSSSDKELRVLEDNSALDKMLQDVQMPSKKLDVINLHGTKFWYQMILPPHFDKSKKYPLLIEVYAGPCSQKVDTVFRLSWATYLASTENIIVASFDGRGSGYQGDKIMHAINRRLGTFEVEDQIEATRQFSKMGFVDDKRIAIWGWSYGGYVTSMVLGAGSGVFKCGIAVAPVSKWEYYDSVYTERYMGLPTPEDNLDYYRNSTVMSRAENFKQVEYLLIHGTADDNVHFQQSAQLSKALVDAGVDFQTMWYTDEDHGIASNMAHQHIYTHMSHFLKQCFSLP
Experimental: DPP IV degradation studies. GIP and fatty acid derivatised GIP analogues were incubated at 37° C. with purified porcine dipeptidylpeptidase IV (5 mU in 50 mmol/l triethanolamine-HCl; pH 7.8) for 0, 2, 4, 8 and 24 hours (final peptide concentration 2 mmol/l). The reactions were subsequently terminated by addition of 10% (v/v) TFA/water and the reaction products separated using HPLC. […] HPLC peak area data were used to calculate % intact peptide remaining throughout the incubation.

[4] = tested on: ob/ob mice; experiment: Acute metabolic and dose-response effects with glucose in 18 h fasted ob/ob mice; type: in vivo, mouse; settings: for overall glucose excursion (glucose AUC) compared to glucose alone: 25 nmoles/kg i.p. with glucose 18 mmoles/kg, 0-60 min; for AUC glucose and insulin in dose-response study: 6.25, 12.5 and 25 nmoles/kg with glucose
Experimental: as §1, §2, §3, §4

| Compound | insulin secretion compared to control [1] | body weight ([2]; 12.5 nmoles/kg/day) | food intake ([2]; 12.5 nmoles/kg/day) | non-fasting plasma insulin ([2]; 12.5 nmoles/kg/day) | non-fasting plasma glucose ([2]; 12.5 nmoles/kg/day, at 14 days) | pancreatic weight ([2]; 14 days treatment) | plasma insulin response to glucose (AUC) [2] | glucose tolerance [2] | insulin sensitivity [2] | overall glucose excursion (glucose AUC) compared to glucose alone [4] | AUC glucose and insulin in dose-response study [4] | other results |
| --- | --- | --- | --- | --- | --- | --- | --- | --- | --- | --- | --- | --- |
| CC[C@H](C)[C@H](NC(=O)[C@H](CO)NC(=O)[C@H](Cc1ccc(O)cc1)NC(=O)[C@H](CC(=O)O)NC(=O)[C@H](CO)NC(=O)[C@@H](NC(=O)[C@H](Cc1ccccc1)NC(=O)[C@@H](NC(=O)CNC(=O)[C@H](CCC(=O)O)NC(=O)[C@H](C)NC(=O)[C@@H](N)Cc1ccc(O)cc1)[C@@H](C)O)[C@@H](C)CC)C(=O)N[C@@H](C)C(=O)N[C@@H](CCSC)C(=O)N[C@@H](CC(=O)O)C(=O)N[C@@H](CCCCN)C(=O)N[C@H](C(=O)N[C@@H](Cc1c[nH]cn1)C(=O)N[C@@H](CCC(N)=O)C(=O)N[C@@H](CCC(N)=O)C(=O)N[C@@H](CC(=O)O)C(=O)N[C@@H](Cc1ccccc1)C(=O)N[C@H](C(=O)N[C@@H](CC(N)=O)C(=O)N[C@@H](Cc1c[nH]c2ccccc12)C(=O)N[C@@H](CC(C)C)C(=O)N[C@@H](CC(C)C)C(=O)N[C@@H](C)C(=O)N[C@@H](CCC(N)=O)C(=O)N[C@@H](CCCCN)C(=O)NCC(=O)N[C@@H](CCCCN)C(=O)N[C@@H](CCCCN)C(=O)N[C@@H](CC(N)=O)C(=O)N[C@@H](CC(=O)O)C(=O)N[C@@H](Cc1c[nH]c2ccccc12)C(=O)N[C@@H](CCCCN)C(=O)N[C@@H](Cc1c[nH]cn1)C(=O)N[C@@H](CC(N)=O)C(=O)N[C@H](C(=O)N[C@H](C(=O)N[C@@H](CCC(N)=O)C(=O)O)[C@@H](C)O)[C@@H](C)CC)C(C)C)[C@@H](C)CC [GIP 1–42, reference compound] | dose-dependently stimulated insulin secretion | no effect | no effect | unchanged | unchanged | did not affect pancreatic weight | had no effect | had no effect | did not affect the characteristic insulin resistance | failed to reach significance | did not significantly affect | % Intact peptide remaining after time (hours) ([3]; pig, 0 h): 100%; % Intact peptide remaining after time (hours) ([3]; pig, 2 h): 52±3%; % Intact peptide remaining after time (hours) ([3]; pig, 8 h): entirely degraded; overall insulinotropic response compared with glucose alone ([4]; 25 nmoles/kg i.p. with glucose): significantly elevated the overall insulinotropic response |
| CCCCCCCCCCCCCCCC(=O)NCCCC[C@H](NC(=O)[C@H](Cc1c[nH]c2ccccc12)NC(=O)[C@H](CC(=O)O)NC(=O)[C@H](CC(N)=O)NC(=O)[C@H](CCCCN)NC(=O)[C@H](CCCCN)NC(=O)CNC(=O)[C@H](CCCCN)NC(=O)[C@H](CCC(N)=O)NC(=O)[C@H](C)NC(=O)[C@H](CC(C)C)NC(=O)[C@H](CC(C)C)NC(=O)[C@H](Cc1c[nH]c2ccccc12)NC(=O)[C@H](CC(N)=O)NC(=O)[C@@H](NC(=O)[C@H](Cc1ccccc1)NC(=O)[C@H](CC(=O)O)NC(=O)[C@H](CCC(N)=O)NC(=O)[C@H](CCC(N)=O)NC(=O)[C@H](Cc1c[nH]cn1)NC(=O)[C@@H](NC(=O)[C@H](CCCCN)NC(=O)[C@H](CC(=O)O)NC(=O)[C@H](CCSC)NC(=O)[C@H](C)NC(=O)[C@@H](NC(=O)[C@H](CO)NC(=O)[C@H](Cc1ccc(O)cc1)NC(=O)[C@H](CC(=O)O)NC(=O)[C@H](CO)NC(=O)[C@@H](NC(=O)[C@H](Cc1ccccc1)NC(=O)[C@@H](NC(=O)CNC(=O)[C@H](CCC(=O)O)NC(=O)[C@H](C)NC(=O)[C@H](Cc1ccc(O)cc1)NC(C)=O)[C@@H](C)O)[C@@H](C)CC)[C@@H](C)CC)[C@@H](C)CC)C(C)C)C(=O)N[C@@H](Cc1c[nH]cn1)C(=O)N[C@@H](CC(N)=O)C(=O)N[C@H](C(=O)N[C@H](C(=O)N[C@@H](CCC(N)=O)C(=O)O)[C@@H](C)O)[C@@H](C)CC [N-AcGIP(LysPAL^37)] | significantly stimulated glucose-induced insulin secretion | no effect | no effect | tendency towards elevated insulin concentrations | significantly (p<0.05) lowered | did not affect pancreatic weight | greater (p<0.01) overall AUC insulin response | significant improvement in glucose tolerance | significant improvement of insulin sensitivity | significantly lowered glucose AUC | prominent dose-dependent antihyperglycaemic and insulinotropic actions at all doses administered | glycated hemoglobin ([2]; 12.5 nmoles/kg/day, at 14 days): significantly (p<0.01) decreased; pancreatic insulin content ([2]; 14 days treatment): significantly increased; GIP receptor desensitization ([2]; acute 25 nmoles/kg with glucose after 14 days treatment): lack of GIP receptor desensitization; % Intact peptide remaining after time (hours) ([3]; incubation with DPP IV, 0 h): 100%; % Intact peptide remaining after time (hours) ([3]; incubation with DPP IV, 24 h): remained completely intact; antihyperglycaemic effect compared to glucose alone ([4]; 6.25 nmoles/kg with glucose): highly significant antihyperglycaemic properties; insulin response (AUC) compared to glucose alone ([4]; 6.25 nmoles/kg with glucose): 2.0 fold; enhancement of overall glucose-mediated insulin release (AUC) compared to native GIP ([4]; 25 nmoles/kg i.p. with glucose): 2.3 fold; overall glucose excursion compared to native GIP ([4]; 25 nmoles/kg i.p. with glucose): decreased the overall glucose excursion; potency at stimulating insulin secretion relative to N-AcGIP(LysPAL^16) ([4]; 25 nmoles/kg i.p. with glucose): 1.5 fold |
